In the NIST ThermoML archive (doi:10.1021/je500669y):

Assay: xn = mol fraction of the nth substance listed
Details: Gas, isochoric method

F/C=C/C(F)(F)F [trans-1,3,3,3-tetrafluoropropene] + C
Details	specific volume [m3/kg]
263.12 K, 541.7 kPa, x2 = 0.747	0.092
273.11 K, 305.7 kPa, x2 = 0.513	0.113
273.14 K, 216.8 kPa, x2 = 0.31	0.12
273.19 K, 565.7 kPa, x2 = 0.747	0.092
283.07 K, 225.4 kPa, x2 = 0.31	0.12
283.29 K, 1326.6 kPa, x2 = 0.748	0.041
283.3 K, 588.9 kPa, x2 = 0.747	0.092
283.38 K, 319 kPa, x2 = 0.513	0.113
288.33 K, 665.7 kPa, x2 = 0.496	0.051
293.03 K, 233.9 kPa, x2 = 0.31	0.12
293.03 K, 611.2 kPa, x2 = 0.747	0.092
293.06 K, 330.6 kPa, x2 = 0.513	0.113
293.17 K, 1381 kPa, x2 = 0.748	0.041
293.26 K, 456.1 kPa, x2 = 0.251	0.056
293.33 K, 681.4 kPa, x2 = 0.496	0.051
303.15 K, 474.1 kPa, x2 = 0.251	0.056
303.16 K, 242.4 kPa, x2 = 0.31	0.12
303.16 K, 711.2 kPa, x2 = 0.496	0.051
303.16 K, 1435.1 kPa, x2 = 0.748	0.041
303.22 K, 634.1 kPa, x2 = 0.747	0.092
303.23 K, 342.7 kPa, x2 = 0.513	0.113
313.15 K, 251 kPa, x2 = 0.31	0.121
313.15 K, 995.8 kPa, x2 = 0.261	0.026
313.19 K, 354.4 kPa, x2 = 0.513	0.113
313.2 K, 1488.8 kPa, x2 = 0.748	0.041
313.22 K, 1512.1 kPa, x2 = 0.513	0.024
313.23 K, 657.6 kPa, x2 = 0.747	0.092
313.24 K, 738.5 kPa, x2 = 0.496	0.051
323.17 K, 259 kPa, x2 = 0.31	0.121
323.17 K, 510.4 kPa, x2 = 0.251	0.056
323.19 K, 366.1 kPa, x2 = 0.513	0.113
323.19 K, 765.2 kPa, x2 = 0.496	0.051
323.21 K, 1040.8 kPa, x2 = 0.261	0.026
323.27 K, 1573.2 kPa, x2 = 0.513	0.024
323.29 K, 1542.4 kPa, x2 = 0.748	0.041
323.35 K, 680.5 kPa, x2 = 0.747	0.092
333.18 K, 1636.8 kPa, x2 = 0.513	0.024
333.2 K, 702.6 kPa, x2 = 0.747	0.092
333.2 K, 792 kPa, x2 = 0.496	0.051
333.25 K, 378.1 kPa, x2 = 0.513	0.113
333.25 K, 1083.7 kPa, x2 = 0.261	0.026
333.25 K, 1595.7 kPa, x2 = 0.748	0.041
333.27 K, 267.5 kPa, x2 = 0.31	0.121
343.11 K, 546.9 kPa, x2 = 0.251	0.056
343.12 K, 1126.5 kPa, x2 = 0.261	0.026
343.16 K, 389.7 kPa, x2 = 0.513	0.113
343.18 K, 275.8 kPa, x2 = 0.31	0.121
343.23 K, 818.7 kPa, x2 = 0.496	0.051
343.23 K, 1648.5 kPa, x2 = 0.748	0.041
343.25 K, 725.3 kPa, x2 = 0.747	0.092
343.34 K, 1700.6 kPa, x2 = 0.513	0.024
353.15 K, 747.4 kPa, x2 = 0.747	0.092
353.17 K, 284.2 kPa, x2 = 0.31	0.121
353.22 K, 401.5 kPa, x2 = 0.513	0.113
353.23 K, 1167.7 kPa, x2 = 0.261	0.026
353.23 K, 1701.4 kPa, x2 = 0.748	0.041
353.24 K, 845 kPa, x2 = 0.496	0.051
353.34 K, 1759 kPa, x2 = 0.513	0.024
363.15 K, 292.6 kPa, x2 = 0.31	0.121
363.16 K, 1209.5 kPa, x2 = 0.261	0.026
363.19 K, 1820.5 kPa, x2 = 0.513	0.024
363.21 K, 770.2 kPa, x2 = 0.747	0.092
363.24 K, 413.1 kPa, x2 = 0.513	0.114
363.25 K, 871.2 kPa, x2 = 0.496	0.051
363.28 K, 1754.1 kPa, x2 = 0.748	0.041
373.1 K, 424.6 kPa, x2 = 0.513	0.114
373.1 K, 1251.1 kPa, x2 = 0.261	0.026
373.11 K, 1881.5 kPa, x2 = 0.513	0.024
373.2 K, 301 kPa, x2 = 0.31	0.121
373.23 K, 600.7 kPa, x2 = 0.251	0.056
373.23 K, 897.8 kPa, x2 = 0.496	0.051
373.27 K, 792.6 kPa, x2 = 0.747	0.092
373.27 K, 1806.6 kPa, x2 = 0.748	0.041
383.17 K, 1940.6 kPa, x2 = 0.513	0.025
383.18 K, 1291.3 kPa, x2 = 0.261	0.026
383.25 K, 815 kPa, x2 = 0.747	0.092
383.28 K, 309.5 kPa, x2 = 0.31	0.121
383.3 K, 437 kPa, x2 = 0.513	0.114
383.31 K, 1859.5 kPa, x2 = 0.748	0.041
383.33 K, 924.1 kPa, x2 = 0.496	0.051
393.06 K, 1327 kPa, x2 = 0.261	0.026
393.1 K, 2000.7 kPa, x2 = 0.513	0.025
393.13 K, 317.8 kPa, x2 = 0.31	0.121
393.14 K, 837.2 kPa, x2 = 0.747	0.092
393.22 K, 448.6 kPa, x2 = 0.513	0.114
393.32 K, 950.3 kPa, x2 = 0.496	0.051
393.33 K, 1911.9 kPa, x2 = 0.748	0.041
403.03 K, 2059.7 kPa, x2 = 0.513	0.025
403.12 K, 1366.9 kPa, x2 = 0.261	0.026
403.17 K, 460.3 kPa, x2 = 0.513	0.114
403.18 K, 326.4 kPa, x2 = 0.31	0.121
403.21 K, 860 kPa, x2 = 0.747	0.092
403.26 K, 1963.8 kPa, x2 = 0.748	0.041
403.27 K, 976.2 kPa, x2 = 0.496	0.051
412.96 K, 2117.2 kPa, x2 = 0.513	0.025
413.15 K, 1405.5 kPa, x2 = 0.261	0.026
413.18 K, 472 kPa, x2 = 0.513	0.114
413.23 K, 881.9 kPa, x2 = 0.747	0.092
413.29 K, 2016 kPa, x2 = 0.748	0.041
413.3 K, 1002.5 kPa, x2 = 0.496	0.052
413.34 K, 334.9 kPa, x2 = 0.31	0.121
413.38 K, 671.6 kPa, x2 = 0.251	0.056

F/C=C/C(F)(F)F [trans-1,3,3,3-tetrafluoropropene] + N#N
Details	specific volume [m3/kg]
263.05 K, 383.1 kPa, x2 = 0.75	0.114
263.16 K, 622.6 kPa, x2 = 0.746	0.069
273.12 K, 398.4 kPa, x2 = 0.75	0.114
273.13 K, 648.5 kPa, x2 = 0.746	0.069
273.19 K, 464.3 kPa, x2 = 0.5	0.066
283.07 K, 291.8 kPa, x2 = 0.495	0.11
283.1 K, 413.5 kPa, x2 = 0.75	0.114
283.1 K, 673.7 kPa, x2 = 0.746	0.069
283.12 K, 485.7 kPa, x2 = 0.5	0.066
293.08 K, 302.8 kPa, x2 = 0.495	0.11
293.09 K, 699 kPa, x2 = 0.746	0.069
293.11 K, 506.5 kPa, x2 = 0.5	0.066
293.13 K, 428.7 kPa, x2 = 0.75	0.114
303.05 K, 313.9 kPa, x2 = 0.495	0.11
303.16 K, 525.9 kPa, x2 = 0.5	0.066
303.17 K, 443.8 kPa, x2 = 0.75	0.114
303.18 K, 196.3 kPa, x2 = 0.254	0.136
303.19 K, 381.3 kPa, x2 = 0.25	0.069
303.35 K, 724.8 kPa, x2 = 0.746	0.069
313.14 K, 203.2 kPa, x2 = 0.254	0.136
313.17 K, 396.1 kPa, x2 = 0.25	0.069
313.17 K, 545.2 kPa, x2 = 0.5	0.066
313.18 K, 324.5 kPa, x2 = 0.495	0.11
313.18 K, 458.8 kPa, x2 = 0.75	0.114
313.2 K, 749.1 kPa, x2 = 0.746	0.069
323.13 K, 209.9 kPa, x2 = 0.254	0.136
323.15 K, 410.2 kPa, x2 = 0.25	0.069
323.16 K, 473.2 kPa, x2 = 0.75	0.114
323.17 K, 335.3 kPa, x2 = 0.495	0.11
323.17 K, 564 kPa, x2 = 0.5	0.066
323.17 K, 773.9 kPa, x2 = 0.746	0.069
333.16 K, 423.9 kPa, x2 = 0.25	0.069
333.17 K, 582.8 kPa, x2 = 0.5	0.066
333.17 K, 799.4 kPa, x2 = 0.746	0.069
333.18 K, 346.1 kPa, x2 = 0.495	0.11
333.19 K, 488.7 kPa, x2 = 0.75	0.114
333.34 K, 216.7 kPa, x2 = 0.254	0.136
343.11 K, 601.4 kPa, x2 = 0.5	0.066
343.12 K, 223.3 kPa, x2 = 0.254	0.136
343.12 K, 356.8 kPa, x2 = 0.495	0.11
343.13 K, 823.9 kPa, x2 = 0.746	0.069
343.14 K, 438.2 kPa, x2 = 0.25	0.069
343.14 K, 503.4 kPa, x2 = 0.75	0.114
353.05 K, 451.9 kPa, x2 = 0.25	0.069
353.08 K, 229.5 kPa, x2 = 0.254	0.136
353.1 K, 619.5 kPa, x2 = 0.5	0.066
353.11 K, 367.5 kPa, x2 = 0.495	0.111
353.13 K, 518.1 kPa, x2 = 0.75	0.114
353.13 K, 848.5 kPa, x2 = 0.746	0.069
363.06 K, 236.3 kPa, x2 = 0.254	0.136
363.1 K, 378.2 kPa, x2 = 0.495	0.111
363.1 K, 465.8 kPa, x2 = 0.25	0.069
363.1 K, 872.9 kPa, x2 = 0.746	0.069
363.12 K, 638.7 kPa, x2 = 0.5	0.066
363.25 K, 533.3 kPa, x2 = 0.75	0.114
373 K, 242.6 kPa, x2 = 0.254	0.136
373.07 K, 547.3 kPa, x2 = 0.75	0.114
373.09 K, 389.2 kPa, x2 = 0.495	0.111
373.09 K, 657 kPa, x2 = 0.5	0.066
373.1 K, 479.5 kPa, x2 = 0.25	0.069
373.16 K, 897.7 kPa, x2 = 0.746	0.069
383.05 K, 675.5 kPa, x2 = 0.5	0.066
383.06 K, 494.4 kPa, x2 = 0.25	0.069
383.08 K, 922.8 kPa, x2 = 0.746	0.069
383.09 K, 399.9 kPa, x2 = 0.495	0.111
383.09 K, 562.6 kPa, x2 = 0.75	0.114
383.26 K, 249.6 kPa, x2 = 0.254	0.136
393.05 K, 508.1 kPa, x2 = 0.25	0.069
393.06 K, 577.5 kPa, x2 = 0.75	0.114
393.06 K, 694 kPa, x2 = 0.5	0.066
393.08 K, 410.6 kPa, x2 = 0.495	0.111
393.13 K, 947.3 kPa, x2 = 0.746	0.069
393.14 K, 256.3 kPa, x2 = 0.254	0.136
402.99 K, 421.1 kPa, x2 = 0.495	0.111
403.04 K, 521.2 kPa, x2 = 0.25	0.069
403.04 K, 592.5 kPa, x2 = 0.75	0.114
403.05 K, 712.5 kPa, x2 = 0.5	0.066
403.1 K, 971.7 kPa, x2 = 0.746	0.069
403.14 K, 262.9 kPa, x2 = 0.254	0.137
413 K, 432.1 kPa, x2 = 0.495	0.111
413.01 K, 535.2 kPa, x2 = 0.25	0.069
413.04 K, 995.8 kPa, x2 = 0.746	0.069
413.06 K, 607.4 kPa, x2 = 0.75	0.114
413.1 K, 731 kPa, x2 = 0.5	0.066
413.13 K, 269.4 kPa, x2 = 0.254	0.137
